Laboratory results from patent publication US20120108501A1, “Protease Inhibitors” (priority 2009, published 2012).

Tests used:
[1] = tested on: CEM-SS cells; format: cell-based
Description: (§1) To evaluate whether the protease inhibitors described herein retain the ability to protect against HIV-1 infection, CEM-SS cells infected with the RF strain of HIV-1 were treated with test compounds for six days, and then cell viability was monitored using the tetrazolium dye XTT. Infection studies were performed and EC50 values were calculated as the protease inhibitor concentration leading to 50% reduction in cell death compared to virus-infected cells without protease inhibitor. TC50 values were calculated as the protease inhibitor concentration leading to 50% cell death in the absence of viral infection. A value for Therapeutic Index (TI) was calculated as TC50/EC50.

[2] = tested on: HT/92/599 clinical subtype B HIV-1; test: HIV-1 reverse transcriptase activity following infection in fresh human PBMCs; format: cell-based; conditions: seven days; for EC50: read-out: PBMC/HIV-1HT/92/599 EC50; for EC90: read-out: PBMC/HIV-1HT/92/599 EC90
Description: Fresh human peripheral blood mononuclear cells (PBMCs) obtained from a commercial source were purified following centrifugation using a Ficoll-Hypaque density gradient. Viable cells were induced to proliferate in the presence of PHA-P and recombinant human IL-2 for 72 hours. PBMCs pooled from three donors were cultured with test compounds in the presence of the HT/92/599 clinical subtype B HIV-1 for seven days, followed by measurement of reverse transcriptase activity in cell supernatants using a radioactive incorporation polymerization assay. […] Incorporation of TTP into DNA was monitored by spotting the reaction mixture onto a DEAE filter mat, followed by washes with 5% phosphate buffer, distilled water, and 70% ethanol, and subsequent drying of the mat. Radioactivity was measured using a Wallac 1450 Microbeta Trilux liquid scintillation counter using Opti-Fluor O. Test compound-associated toxicity was measured in PBMCs cultured for seven days in the absence of virus using XTT reagent. EC50 and EC90 values were calculated as the protease inhibitor concentration leading to 50% and 90% reduction in […], respectively, compared to virus-infected cells without protease inhibitor. TC50 values were calculated as the protease inhibitor concentration leading to 50% cell death in the absence of viral infection. A value for Therapeutic Index (TI) was calculated as TC50/EC50.

[3] = tested on: HIV-1RF; test: Cytoprotection in CEM-SS cells infected with HIV-1RF (XTT); format: cell-based; conditions: CEM-SS cells infected with RF strain of HIV-1, six days
Description: as §1

[4] = tested on: human peripheral blood mononuclear cells (PBMCs); format: cell-based
Description: Fresh human peripheral blood mononuclear cells (PBMCs) obtained from a commercial source were purified following centrifugation using a Ficoll-Hypaque density gradient. Viable cells were induced to proliferate in the presence of PHA-P and recombinant human IL-2 for 72 hours. PBMCs pooled from three donors were cultured with test compounds in the presence of the HT/92/599 clinical subtype B HIV-1 for seven days, followed by measurement of reverse transcriptase activity in cell supernatants using a radioactive incorporation polymerization assay. Cell supernatant containing HIV-1 viral was incubated for 90 minutes at 37° C. with a reaction mixture containing EGTA, Triton X-100, Tris (pH 7.4), DTT, MgCl2, poly rA, oligo dT, and tritiated thymidine triphosphate (TTP). Incorporation of TTP into DNA was monitored by spotting the reaction mixture onto a DEAE filter mat, followed by washes with 5% phosphate buffer, distilled water, and 70% ethanol, and subsequent drying of the mat. Radioactivity was measured using a Wallac 1450 Microbeta Trilux liquid scintillation counter using Opti-Fluor O. Test compound-associated toxicity was measured in PBMCs cultured for seven days in the absence of virus using XTT reagent. EC50 and EC90 values were calculated as the protease inhibitor concentration leading to 50% and 90% reduction in […], respectively, compared to virus-infected cells without protease inhibitor. TC50 values were calculated as the protease inhibitor concentration leading to 50% cell death in the absence of viral infection. A value for Therapeutic Index (TI) was calculated as TC50/EC50.

[5] = Pharmacokinetics of released PEGylated protease inhibitor following P.O. administration of prodrugs in rats; format: in vivo, male Sprague-Dawley rats; design: AUCall Mean: concentration or dose not given beside the values; conditions: mPEG6-atazanavir in plasma after PO administration of mPEG6-ATV or of the listed prodrug, rats (n = 4-5)
How it was run: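 Prodrugs given orally to male Sprague-Dawley rats, with serial blood via jugular catheter into K2EDTA. Plasma levels of test article or released PEGylated inhibitor measured by LC-MS/MS. PK parameters from noncompartmental analysis.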

| EC50 [2] | EC90 [2] | EC50 [3] | CEM-SS/HIV-1RF EC50 [3] | AUCall Mean [5] | Cmax Mean [5] | MRT last Mean [5] | Tmax Median [5] | SMILES | CC50 [1] | CC50 [4] |
| --- | --- | --- | --- | --- | --- | --- | --- | --- | --- | --- |
| 0.97 µM | 2.52 µM | 0.35 µM | – | – | – | – | – | CCCCCCCCCCCCCCCCOCC(COP(=O)(O)OC(CN(Cc1ccc(-c2ccccn2)cc1)NC(=O)C(NC(=O)OC)C(C)(C)C)C(Cc1ccccc1)NC(=O)C(NC(=O)OCCOCCOCCOC)C(C)(C)C)OC (centres unmarked) [mPEG3-Atazanavir-monophospholipid] | 14.2 µM | 43.7 µM |
| 12.3 µM | 26.8 µM | > 200 µM | no EC50 value could be determined | – | – | – | – | CCCCCCCCCCCCCCCCOCC(COP(=O)(O)OC(CN(Cc1ccc(-c2ccccn2)cc1)NC(=O)C(NC(=O)OC)C(C)(C)C)C(Cc1ccccc1)NC(=O)C(NC(=O)OCCOCCOCCOCCOCCOC)C(C)(C)C)OC (centres unmarked) [mPEG5-Atazanavir-monophospholipid] | 12 µM | 17.1 µM |
| 12.4 µM | 26.3 µM | 14.2 µM | – | 0.108 ng·h/mL | 0.432 ng/mL | 15 min | 15 min | CCCCCCCCCCCCCCCCOCC(COP(=O)(O)OC(CN(Cc1ccc(-c2ccccn2)cc1)NC(=O)C(NC(=O)OC)C(C)(C)C)C(Cc1ccccc1)NC(=O)C(NC(=O)OCCOCCOCCOCCOCCOCCOC)C(C)(C)C)OC (centres unmarked) [mPEG6-Atazanavir-monophospholipid, mPEG6-atazanavir monophospholipid] | 12.6 µM | 37.6 µM |
